Test system in the first data set: not listed separately
Description: Apparent Km value was determined. It is filed as ADME.
In general, Km refers to the substrate concentration at which the rate is half of its maximum. For the molecule `C[C@]12CCC(=O)C=C1CC[C@@H]1[C@@H]2CC[C@]2(C)C(=O)CC[C@@H]12` [ANDROSTENEDIONE], the Km came out at 0.051 µM.

For a further data set, the target named is T1, Aromatase (Homo sapiens, UniProt P11511).
T1 sequence (P11511 whole entry): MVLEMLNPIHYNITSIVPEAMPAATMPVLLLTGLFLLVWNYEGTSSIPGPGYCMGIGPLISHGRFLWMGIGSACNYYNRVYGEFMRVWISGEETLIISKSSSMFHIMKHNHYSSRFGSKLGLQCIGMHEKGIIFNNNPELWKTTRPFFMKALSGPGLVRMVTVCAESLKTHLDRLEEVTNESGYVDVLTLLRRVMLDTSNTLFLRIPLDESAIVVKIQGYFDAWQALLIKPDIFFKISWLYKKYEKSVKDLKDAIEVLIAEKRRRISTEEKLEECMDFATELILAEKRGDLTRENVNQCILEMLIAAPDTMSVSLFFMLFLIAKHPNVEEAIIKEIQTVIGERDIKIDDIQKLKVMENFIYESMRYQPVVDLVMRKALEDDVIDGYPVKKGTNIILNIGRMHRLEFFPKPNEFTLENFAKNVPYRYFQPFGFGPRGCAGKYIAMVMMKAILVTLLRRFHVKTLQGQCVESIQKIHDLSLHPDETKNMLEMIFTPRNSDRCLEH
Description: In vitro inhibition of human placental cytochrome P450 19A1.
Broadly, the Ki is a dissociation constant, usually derived from enzyme kinetics or from competition with a known ligand. A higher Ki goes with a looser hold on the target. Turning to `CC12CCC3C(C(CCc4ccc(N)cc4)=CC4=CC(=O)CCC43C)C1CCC2=O` (configuration not stated), the affinity, expressed as Ki, was 88 nM. That is a double-digit nanomolar value.
The same measure, in the same setting: the result for `CC12CCC3C(C(c4ccccc4)=CC4=CC(=O)CCC43C)C1CCC2=O` (configuration not stated) reads 1420 nM; that for `CC12CCC3C(C(CCc4ccccc4)=CC4=CC(=O)CCC43C)C1CCC2=O` (configuration not stated), 174 nM; that for `CC12CCC3C(C(CCc4ccc([N+](=O)[O-])cc4)=CC4=CC(=O)CCC43C)C1CCC2=O` (configuration not stated), 95 nM.
Same read-out and setting: in the case of `CC12CCC3C(C(Cc4ccc([N+](=O)[O-])cc4)=CC4=CC(=O)CCC43C)C1CCC2=O` (configuration not stated) it was 94 nM; in that of `CC12CCC3C(C(Cc4ccc(N)cc4)=CC4=CC(=O)CCC43C)C1CCC2=O` (configuration not stated), 88 nM.

Values taken from ChEMBL document CHEMBL1124919, “Synthesis and biochemical studies of 7-substituted 4,6-androstadiene-3,17-diones as aromatase inhibitors” (J Med Chem, 1990).
